In the supplement of paper PMC12137928:
Counter-ions that a name gives are not always drawn.

Tested on: HCT116
Settings: 72 h
Outline: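 HCT116 cells were plated at 250 per well in 1536-well plates and allowed 5 h to attach. CellTiter-Glo luminescence was normalized to vehicle as 0% and positive control as -100%, followed by pattern correction. Four-parameter Hill fits provided IC50 and maximal efficacy.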

| IC50 cell viability (ICRF193 0 nM) | IC50 cell viability (ICRF193 200 nM) | SMILES |
| --- | --- | --- |
| > 45.8 µM | > 45.8 µM | Cc1ccc(C(=O)C(C)CN2CCCCC2)cc1 (stereo unspecified) [Tolperisone hydrochloride] |
| > 45.8 µM | > 45.8 µM | COCC(=O)Nc1cc(Sc2ccccc2)ccc1N=C(NC(=O)OC)NC(=O)OC [Febantel] |
| > 45.8 µM | > 45.8 µM | CC1(C)O[C@@H]2C[C@H]3[C@@H]4C[C@H](F)C5=CC(=O)C=C[C@]5(C)[C@H]4[C@@H](O)C[C@]3(C)[C@]2(C(=O)CO)O1 [Flunisolide] |
| > 45.8 µM | > 45.8 µM | CCCCC(=O)O[C@]1(C(=O)CO)[C@@H](C)C[C@H]2[C@@H]3CCC4=CC(=O)C=C[C@]4(C)[C@@]3(F)[C@@H](O)C[C@@]21C [Betamethasone valerate] |
| > 45.8 µM | > 45.8 µM | CN(C)CCc1c[nH]c2ccc(CS(=O)(=O)N3CCCC3)cc12 [Almotriptan] |
| > 45.8 µM | > 45.8 µM | CCCCC(CC)CNC(=O)CC(C)OC(=O)CCC(=O)O (stereo unspecified) [Butoctamide semisuccinate] |
| > 45.8 µM | > 45.8 µM | CC1(C)S[C@@H]2[C@H](NC(=O)Cc3ccccc3)C(=O)N2[C@H]1C(=O)O [Penicillin G Sodium] |
| > 45.8 µM | > 45.8 µM | C=C(c1ccc(C(=O)O)cc1)c1cc2c(cc1C)C(C)(C)CCC2(C)C [Bexarotene] |
| > 45.8 µM | > 45.8 µM | CCCN1C[C@H](C)[C@@H](O)[C@](C)(O)[C@@H](CC)OC(=O)[C@H](C)[C@@H](O[C@H]2C[C@@](C)(OC)[C@@H](O)[C@H](C)O2)[C@H](C)[C@@H](O[C@@H]2O[C@H](C)C[C@H](N(C)C)[C@H]2O)[C@](C)(O)C[C@H]1C [Gamithromycin] |
| > 45.8 µM | > 45.8 µM | COC(=O)CCc1ccc(OCC(O)CNC(C)C)cc1 (stereo unspecified) [Esmolol hydrochloride] |
| > 45.8 µM | > 45.8 µM | C[C@@H]1[C@H](O)[C@@H](C)/C=C/C=C/C=C/C=C/C=C/C=C/C=C/[C@H](O[C@@H]2O[C@H](C)[C@@H](O)[C@H](N)[C@@H]2O)C[C@@H]2O[C@](O)(C[C@@H](O)C[C@@H](O)[C@H](O)CC[C@@H](O)C[C@@H](O)CC(=O)O[C@H]1C)C[C@H](O)[C@H]2C(=O)O [Amphotericin B] |
| > 45.8 µM | > 45.8 µM | FC(F)OC(Cl)C(F)(F)F (stereo unspecified) [Isoflurane] |
| > 45.8 µM | > 45.8 µM | CC(C)Cc1ccc(C(C)C(=O)OCc2ccccn2)cc1 (stereo unspecified) [Ibuprofen piconol] |
| > 45.8 µM | > 45.8 µM | O=C([O-])CC([S-])C(=O)[O-].[Au+].[Na+].[Na+] (stereo unspecified) [Sodium aurothiomalate(I)] |
| > 45.8 µM | > 45.8 µM | Clc1ccc2c(c1)C(N1CCNCC1)=Nc1ccccc1O2 [Amoxapine] |
| > 45.8 µM | > 45.8 µM | C=CC[N+]1([C@H]2C[C@H]3[C@@H]4CC[C@H]5C[C@H](O)[C@@H](N6CCOCC6)C[C@]5(C)[C@H]4CC[C@]3(C)[C@H]2OC(C)=O)CCCC1 [Rocuronium bromide] |
| > 45.8 µM | > 45.8 µM | CC(=O)N[C@@H](Cc1ccc(O)cc1)C(=O)O [N-Acetyl-L-tyrosine] |
| > 45.8 µM | > 45.8 µM | COc1ccc(NC(=O)c2ccc(C(=N)N(C)C)cc2)c(C(=O)Nc2ccc(Cl)cn2)c1 [Betrixaban] |
| > 45.8 µM | > 45.8 µM | CN1CC(O)c2cc(N=NC(=N)N)c(O)cc21 (stereo unspecified) [ADRENOCHROME MONOAMINOGUANIDINE MESILATE ANHYDROUS] |
| > 45.8 µM | > 45.8 µM | C/C(=C(\CCOP(=O)(O)O)SC(=O)c1ccccc1)N(C=O)Cc1cnc(C)nc1N [Benfotiamine] |
| > 45.8 µM | > 45.8 µM | CN(CC1(C)CCCO1)S(=O)(=O)c1ccc(Cl)c(S(N)(=O)=O)c1 (stereo unspecified) [Mefruside] |
| > 45.8 µM | > 45.8 µM | Cn1c(=O)c2c(ncn2CC(O)CO)n(C)c1=O (stereo unspecified) [Dyphylline] |

| IC50 cell viability (ICRF193 0 nM) | IC50 cell viability (ICRF193 200 nM) | SMILES |
| --- | --- | --- |
| > 45.8 µM | > 45.8 µM | CN(C)CCN(Cc1ccsc1)c1ccccn1 [Thenyldiamine] |
| > 45.8 µM | > 45.8 µM | CC(=O)OCC(=O)[C@@]1(O)CC[C@H]2[C@@H]3CCC4=CC(=O)CC[C@]4(C)[C@H]3[C@@H](O)C[C@@]21C [Hydrocortisone acetate] |
| > 45.8 µM | > 45.8 µM | CN(C)CCCOc1nn(Cc2ccccc2)c2ccccc12 [Benzydamine hydrochloride] |
| > 45.8 µM | > 45.8 µM | CCOC(=O)[C@H](CCc1ccccc1)N[C@H]1CCCN2CCC[C@@H](C(=O)O)N2C1=O [Cilazapril] |
| > 45.8 µM | > 45.8 µM | CCOC(=O)[C@H](CCc1ccccc1)N[C@@H](C)C(=O)N1C(=O)N(C)C[C@H]1C(=O)O [Imidapril hydrochloride] |
| > 45.8 µM | > 45.8 µM | C[C@H](O)C(=O)Nc1c(I)c(C(=O)NC(CO)CO)c(I)c(C(=O)NC(CO)CO)c1I [Iopamidol] |
| > 45.8 µM | > 45.8 µM | Oc1ccccc1 [Phenol] |
| > 45.8 µM | > 45.8 µM | C#CC(C)(CC)OC(=O)c1ccccc1C(=O)O (stereo unspecified) [Phthalofyne] |
| > 45.8 µM | > 45.8 µM | O=C(O)c1ccccc1Nc1cc(Cl)ccc1C(=O)O [Lobenzarit sodium] |
| > 45.8 µM | > 45.8 µM | CC#C[C@]1(O)CC[C@H]2[C@@H]3CCC4=CC(=O)CCC4=C3[C@@H](c3ccc(N(C)C)cc3)C[C@@]21C [Mifepristone] |
| > 45.8 µM | > 45.8 µM | CC(C)CCCC(C)NC(C)C (stereo unspecified) [IPROHEPTINE] |
| > 45.8 µM | > 45.8 µM | NCCc1c[nH]cn1 [Histamine dihydrochloride] |
| > 45.8 µM | > 45.8 µM | Cc1cc(=O)oc2cc(O)ccc12 [4-Methylumbelliferone] |
| > 45.8 µM | > 45.8 µM | Cc1cc(O)cc(C)c1Cl [4-Chloro-3,5-dimethylphenol] |
| > 45.8 µM | > 45.8 µM | O=C(Nc1cccc2c(=O)cc(-c3nnn[nH]3)oc12)c1ccc(OCCCCc2ccccc2)cc1 [Pranlukast hydrate] |
| > 45.8 µM | > 45.8 µM | NCCCC[C@@H]1NC(=O)[C@@H](Cc2c[nH]c3ccccc23)NC(=O)[C@H](c2ccccc2)NC(=O)[C@@H]2C[C@@H](OC(=O)NCCN)CN2C(=O)[C@H](Cc2ccccc2)NC(=O)[C@H](Cc2ccc(OCc3ccccc3)cc2)NC1=O [Pasireotide (ditrifluoroacetate)] |
| > 45.8 µM | > 45.8 µM | CO/N=C(\C(=O)N[C@@H]1C(=O)N2C(C(=O)[O-])=C(C[n+]3ccn4ncccc43)CS[C@H]12)c1nsc(N)n1 [Cefozopran hydrochloride] |
| > 45.8 µM | > 45.8 µM | Cc1ccc(NC(=O)C2(c3ccc4c(c3)OC(F)(F)O4)CC2)nc1-c1cccc(C(=O)O)c1 [Lumacaftor] |
| > 45.8 µM | > 45.8 µM | C=CC1=C(C(=O)O)N2C(=O)[C@@H](NC(=O)/C(=N\O)c3csc(N)n3)[C@H]2SC1 [Cefdinir] |
| > 45.8 µM | > 45.8 µM | CO/N=C(\C(=O)N[C@@H]1C(=O)N2C(C(=O)OC(C)OC(C)=O)=C(COC(N)=O)CS[C@H]12)c1ccco1 (stereo partly specified) [Cefuroxime Axetil] |
| > 45.8 µM | > 45.8 µM | CNC(=O)c1c(I)c(NC(C)=O)c(I)c(C(=O)O)c1I [Iothalamate sodium] |
| > 45.8 µM | > 45.8 µM | Cc1nc(C2CCCCC2)c(-c2ccc(S(N)(=O)=O)c(F)c2)o1 [Tilmacoxib] |

| SMILES | IC50 cell viability (ICRF193 0 nM) | IC50 cell viability (ICRF193 200 nM) |
| --- | --- | --- |
| COc1cccc(C(=O)CCN[C@@H](C)[C@H](O)c2ccccc2)c1 [l-Oxyfedrine hydrochloride] | > 45.8 µM | > 45.8 µM |
| O=C1CC[C@@]2(O)[C@H]3Cc4ccc(O)c5c4[C@@]2(CCN3CC2CC2)[C@H]1O5 [Naltrexone hydrochloride] | > 45.8 µM | > 45.8 µM |
| O=C(OCCN1CCCCC1)C(O)(c1ccccc1)c1ccccc1 [Piperilate hydrochloride] | > 45.8 µM | > 45.8 µM |
| COC(=O)C(c1ccccc1)C1CCCCN1 (stereo unspecified) [METHYLPHENIDATE HYDROCHLORIDE] | > 45.8 µM | > 45.8 µM |
| CNC(C)CC1CCCC1 (stereo unspecified) [Cyclopentamine hydrochloride] | > 45.8 µM | > 45.8 µM |
| C[N+]12CCC(CC1)C(OC(=O)C(O)(c1ccccc1)c1ccccc1)C2 (stereo unspecified) [Clidinium bromide] | > 45.8 µM | > 45.8 µM |
| Cc1ccccc1-n1c(CF)nc2ccc(N)cc2c1=O [Afloqualone] | > 45.8 µM | > 45.8 µM |
| O=C1C2CC=CCC2C(=O)N1SC(Cl)(Cl)Cl (stereo unspecified) [Captan] | > 45.8 µM | > 45.8 µM |
| CCC1(C)CC(=O)NC(=O)C1 [Bemegride] | > 45.8 µM | > 45.8 µM |
| CC(=O)O[C@H]1C[C@@H]2CC[C@@H]3[C@H](CC[C@@]4(C)[C@H]3C[C@H]([N+]3(C)CCCCC3)[C@@H]4OC(C)=O)[C@@]2(C)C[C@@H]1[N+]1(C)CCCCC1 [Pancuronium bromide] | > 45.8 µM | > 45.8 µM |
| NCC1(CC(=O)O)CCCCC1 [Gabapentin] | > 45.8 µM | > 45.8 µM |
| C[N+]1(CCF)[C@@H]2CC[C@H]1C[C@@H](OC(=O)C(O)(c1ccccc1)c1ccccc1)C2 (stereo partly specified) [Flutropium bromide] | > 45.8 µM | > 45.8 µM |
| CC(C)(C)NCC(O)c1ccccc1Cl (stereo unspecified) [Tulobuterol hydrochloride] | > 45.8 µM | > 45.8 µM |
| C=C/C=C\CC1=C(C)[C@@H](OC(=O)[C@@H]2[C@@H](/C=C(\C)C(=O)OC)C2(C)C)CC1=O [PYRETHRIN II] | > 45.8 µM | > 45.8 µM |
